Data reported in patent publication US7745465B2, “Method of enhancing cellular production of molecular chaperone, hydroxylamine derivatives useful for enhancing the chaperone production and the preparation thereof” (CytRx Corporation, priority 1995, dated 2010).

Key:
plasma membrane fluidity = assay: Steady-state fluorescence anisotropy of DPH-PA in serum deprived cells; assay type: cell-based; conditions: both cell models
Method: Experiments were carried out using WEH1 mouse fibrosarcoma and H9c2 rat heart muscle cell lines divided into three groups: • control (10% FCS fetal calf serum) • serum deprived • N-[2-hydroxy-3-(1-piperidinyl)propoxy]-3-pyridinecarboximidoyl chloride maleate (10^−5 M) treated and serum deprived 1.2(i) Serum Deprivation and MTT Test
Cell suspensions of […] in PBS were labeled by the addition of DPH-PA (3-[p-(6-Phenyl)-1,3,5-hexatrienyl]phenylpropionic acid) dissolved in tetrahydrofuran at a final concentration of 0.1 :M and incubated for 10 min. at 37 C. The amount of organic solvent added was 0.05% to avoid its effect on cell membranes. […] Fluorescence measurements were carried out at 37° C. using a Quanta Master QM-1 T-format luminescence spectrometer (Photon Technology Int. Inc., N.J. USA) equipped with polarizers in the excitation and in the two emission light path. […] The measured fluorescence intensities were corrected for background fluorescence and light scattering from the unlabeled sample. The fluorescence anisotropy was calculated as rs=(IVV−G·IVH)/(IVV+(2×G×IVH))
where IVV and IVH are observed intensities measured with polarizers parallel and perpendicular to the vertically polarized exciting beam, respectively. […]

hsp72 [1] = assay: hsp72 in skin of UVB exposed human skin grafted SCID mice (immunofluorescence, Western blot); assay type: in vivo; conditions: 5.0 mg/kg i.p.
Method: Human skin tissues were grafted onto immunodeficiency (SCID) mice. The experimental protocol involved a treatment of one group of the mice with N-[2-hydroxy-3-(1-piperidinyl)propoxy]-3-piridinecarboxymidoyl chloride maleate (5.0 mg/kg i.p.) and the other with the solvent NaCl solution (300 μl) for 7 days. On day 8, both groups of mice were exposed to UVB light (100 mJ/cm^2) 24 hours subsequent to the exposure, skin biopsies were taken for histological (sections stained with hematoxylin and eosin), and immunohistological examinations (indirect immunoflourescence technique with monoclonal antibody, mAB).
All steps were carried out at room temperature. Skin (about 9-35 mg) was cut into tiny pieces and homogenized with frosted-glass pestle in Eppendorf tubes for 2 min. in ([…]) of 2 times concentrated Laemmli buffer (65 mM Tris-HCI, pH 6.8: 5% β-mercaptoethanol; 2% SDS; 10% glycerol; 0.1% bromophenolblue; all of these materials were Sigma products). Then samples were solubilized for another 60 min. with continuous shaking. The homogenates were centrifuged at 10.000 rpm for 10 min. prior loading to the gel.
Electrophoresis were carried out on 8% polyacrylamide gel with 10 μl of sample per lane at constant voltage (50 V) for overnight. […]

[2] = system: Streptozotocin-induced diabetic (STZ) rats; assay: Wound healing of thermal wounds in STZ-diabetic rats; assay type: in vivo, rat; conditions: 4% containing cream, topical
Method: (ii) Streptozotocin-induced diabetic (STZ) rats with partial-to full thickness thermal wounds created on bilateral thoracic depilated skin by electroheating probe (3 mm of diameter; 60° C.; for 30, 60 and 90 sec.), treated by topical application of 1%, 2% or 4% N-[2-hydroxy-3-(1-piperidinyl)propoxy]-3-piridinecarboximidoyl chloride maleate containing cream or vehicle were used to determine the wound healing in form of self-control, side to side comparison. Wound closure was recorded photographically and using the digital epiluminescence microscopic technique. Wound areas were measured by planimetry 48 h and 21 days after heat injury. Level of hsp72 of skin biopsy samples was determined using Western blot analysis.

hsp72 [3] = assay: HgCl2 stress induced hsp72 level in U-937 cells; assay type: cell-based, human; conditions: 10^−5 M, 0.5 μg/ml HgCl2, 6 hours
Method: From the applied cells the 3T3 and L-929 mouse fibroblasts were cultured in MEM medium and grew in monolayer, the U-937 human leukemia cells were maintained in RPMI-1640 medium, in suspension culture, while the HeLa human epithelial cells were cultured in DMEM medium and in monolayer form. Cell cultures were maintained as described in example 6.2 (a) with the difference that cells were cultured in the above mentioned culture mediums.
Experiments were carried out applying stress before and after the drug treatment. Stress was provoked by heat, by chemical agent, HgCl2 treatment. The test compounds were applied in the treatments at the 10^−5 M concentration.
These experiments were performed on HeLa, human epithelial and U-937, human leukemia cells using HgCl2 to induce stress response. Drug treatment was carried out before cells were exposed to the stress. Test cultures were prepared and treatments were performed as in the experiments with the 3T3 cells. After the drug treatment cells were incubated at 37° C. for 15 min. than all the cultures except two (non stressed control) were exposed to 0.5 μg/ml concentration of HgCl2 and the incubation was followed. The induced amount of hsp72 was measured 6 hours after the exposure to stress.

Question: Which results are given for `O=C(O)/C=C\C(=O)O.OC(CON=C(Cl)c1cccnc1)CN1CCCCC1` (centres unmarked) [N-[2-hydroxy-3-(1-piperidinyl)-propoxy]3-pyridinecarboximidoyl chloride maleate]?
Answer: membrane physical state (fluorescence anisotropy of DPH-PA) (plasma membrane fluidity): almost complete preservation of the membrane physical state; amount of hsp72 by Western blotting (hsp72 [1]; UVB 100 mJ/cm^2, biopsy after 24 h): increased amount of hsp72; hsp72 staining by indirect immunofluorescence (hsp72 [1]; UVB 100 mJ/cm^2, biopsy after 24 hours): intense, linear staining along the basement membrane zone; wound closure compared to vehicle control [2]: accelerated wound closure; increase of the stress induced hsp72 level relative to the stress exposed control (hsp72 [3]): more than 20%
